These results are taken from ChEMBL document CHEMBL3045716, “Isolation and characterization of n-octacosanoic acid from Viburnum foetens: a novel antibiofilm agent against Streptococcus Mutans” (2012).

The test system of experiment [1] is Streptococcus mutans. Put plainly: Antimicrobial activity against Streptococcus mutans UA159 after 24 hr by two-fold serial dilution method. The experiment is classed as functional. Conditions: UA159, 24 h.
The subject of experiment [2] is Streptococcus mutans. In words: Inhibition of Streptococcus mutans UA159 biofilm formation assessed as conversion of carbohydrates to organic acid measured as pH at 10 ug/ml. The format is functional.
The test system of experiment [3] is Streptococcus mutans. Put plainly: Inhibition of Streptococcus mutans UA159 biofilm formation assessed as conversion of carbohydrates to organic acid measured as pH at 5 ug/ml. The experiment is classed as functional.
Experiment [4] concerns Streptococcus mutans. In words: Inhibition of Streptococcus mutans UA159 biofilm formation assessed as conversion of carbohydrates to organic acid measured as pH at 2.5 ug/ml. The experiment is classed as functional.
Experiment [5] concerns Streptococcus mutans. Put plainly: Inhibition of Streptococcus mutans UA159 biofilm formation assessed as conversion of carbohydrates to organic acid measured as pH at 1.25 ug/ml. The format is functional.
The subject of experiment [6] is Streptococcus mutans. In words: Inhibition of Streptococcus mutans UA159 biofilm formation assessed as conversion of carbohydrates to organic acid measured as pH at 80 ug/ml. The format is functional.
The subject of experiment [7] is Streptococcus mutans. Put plainly: Inhibition of Streptococcus mutans UA159 biofilm formation assessed as conversion of carbohydrates to organic acid measured as pH at 40 ug/ml. The format is functional.
For experiment [8], the system named is Streptococcus mutans. In words: Inhibition of Streptococcus mutans UA159 biofilm formation assessed as conversion of carbohydrates to organic acid measured as pH at 20 ug/ml. The experiment is classed as functional.
Experiment [9] deals with Streptococcus mutans. Put plainly: Inhibition of Streptococcus mutans UA159 biofilm formation assessed as conversion of carbohydrates to organic acid measured as pH at 0.625 ug/ml. The experiment is classed as functional.
Experiment [10] has as its system Streptococcus mutans. In words: Inhibition of Streptococcus mutans UA159 biofilm formation assessed as conversion of carbohydrates to organic acid measured as pH at 0.312 ug/ml. The experiment is classed as functional.
Experiment [11] concerns Streptococcus mutans. In words: Inhibition of Streptococcus mutans UA159 biofilm formation assessed as biofilm thickness at 20 ug/ml after 24 hr by confocal laser scanning microscopic analysis (reference value: 19.74 +/- 0.5 uM). The format is functional.
Experiment [12] has as its system Streptococcus mutans. Put plainly: Inhibition of Streptococcus mutans UA159 biofilm formation assessed as inability of cells to aggregrate and form clumps at MIC after 24 hr by confocal laser scanning microscopic analysis. The experiment is classed as functional, organism-based.
Experiment [13] addresses T1, Glucosyltransferase-SI (Streptococcus mutans serotype c (strain ATCC 700610 / UA159)) (UniProt P13470).
T1 sequence (whole entry): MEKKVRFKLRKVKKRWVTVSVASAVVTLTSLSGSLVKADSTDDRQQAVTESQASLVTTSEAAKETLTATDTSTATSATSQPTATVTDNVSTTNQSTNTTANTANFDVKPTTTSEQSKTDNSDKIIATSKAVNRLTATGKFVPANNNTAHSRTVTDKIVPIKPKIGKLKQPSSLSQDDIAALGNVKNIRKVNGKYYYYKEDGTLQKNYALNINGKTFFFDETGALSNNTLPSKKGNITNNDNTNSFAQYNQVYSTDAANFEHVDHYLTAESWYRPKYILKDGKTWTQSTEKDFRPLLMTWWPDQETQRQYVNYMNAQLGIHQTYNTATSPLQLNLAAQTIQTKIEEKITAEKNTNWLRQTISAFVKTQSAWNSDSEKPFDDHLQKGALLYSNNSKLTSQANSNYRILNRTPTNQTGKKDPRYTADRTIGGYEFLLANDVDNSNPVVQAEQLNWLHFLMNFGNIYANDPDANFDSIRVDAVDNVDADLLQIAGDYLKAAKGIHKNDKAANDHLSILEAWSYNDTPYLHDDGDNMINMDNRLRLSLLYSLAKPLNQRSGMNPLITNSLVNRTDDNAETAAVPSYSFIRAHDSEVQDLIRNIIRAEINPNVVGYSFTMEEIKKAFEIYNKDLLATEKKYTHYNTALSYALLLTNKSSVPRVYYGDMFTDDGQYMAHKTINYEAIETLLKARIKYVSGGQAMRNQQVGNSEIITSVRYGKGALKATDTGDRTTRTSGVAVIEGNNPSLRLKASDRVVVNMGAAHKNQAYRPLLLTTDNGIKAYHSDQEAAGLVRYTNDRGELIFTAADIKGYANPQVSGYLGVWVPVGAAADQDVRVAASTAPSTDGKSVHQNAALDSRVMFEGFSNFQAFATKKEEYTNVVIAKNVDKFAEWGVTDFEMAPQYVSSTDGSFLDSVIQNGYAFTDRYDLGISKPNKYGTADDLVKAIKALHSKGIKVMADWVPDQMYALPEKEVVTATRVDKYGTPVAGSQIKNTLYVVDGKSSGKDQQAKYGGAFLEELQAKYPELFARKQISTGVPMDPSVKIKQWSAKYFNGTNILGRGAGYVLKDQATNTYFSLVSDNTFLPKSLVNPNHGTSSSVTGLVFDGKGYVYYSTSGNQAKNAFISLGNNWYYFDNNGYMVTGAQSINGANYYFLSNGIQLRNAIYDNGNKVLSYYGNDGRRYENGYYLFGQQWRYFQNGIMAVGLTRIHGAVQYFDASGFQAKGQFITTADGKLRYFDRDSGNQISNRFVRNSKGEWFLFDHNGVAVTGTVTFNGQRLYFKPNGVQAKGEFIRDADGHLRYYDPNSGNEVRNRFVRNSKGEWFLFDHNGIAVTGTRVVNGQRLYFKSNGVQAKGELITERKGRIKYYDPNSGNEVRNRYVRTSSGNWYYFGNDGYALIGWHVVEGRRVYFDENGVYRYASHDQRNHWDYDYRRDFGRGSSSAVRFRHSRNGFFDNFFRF
In words: Inhibition of Streptococcus mutans UA159 Glucosyltransferase assessed as water-insoluble glucan production using sucrose as substrate at 2.5 ug/ml after 24 hr.

Experiment [14] has as its system Streptococcus mutans. In words: Inhibition of Streptococcus mutans UA159 cell surface hydrophobicity at 20 ug/ml by spectrophotometry (reference value: 88.01 +/- 1.94%). The experiment is classed as functional.
Experiment [15] concerns Streptococcus mutans. Put plainly: Inhibition of Streptococcus mutans UA159 cell surface hydrophobicity at 5 ug/ml by spectrophotometry (reference value: 88.01 +/- 1.94%). The format is functional.
For experiment [16], the system named is Streptococcus mutans. Put plainly: Inhibition of sucrose-dependent adhesion of Streptococcus mutans UA159 to saliva-coated glass surface at 80 ug/ml by spectrophotometry. The experiment is classed as functional, organism-based.
Experiment [17] deals with Streptococcus mutans. In words: Inhibition of sucrose-dependent adhesion of Streptococcus mutans UA159 to saliva-coated glass surface at 10 ug/ml by spectrophotometry. The format is functional.
The test system of experiment [18] is Streptococcus mutans. In words: Inhibition of sucrose-dependent adhesion of Streptococcus mutans UA159 to saliva-coated glass surface at 1.25 ug/ml by spectrophotometry. The experiment is classed as functional.
For experiment [19], the system named is Streptococcus mutans. Put plainly: Inhibition of adhesion of Streptococcus mutans UA159 to saliva-coated glass surface at 0.156 to 5120 ug/ml by spectrophotometry. The format is functional, organism-based.
The subject of experiment [20] is Streptococcus mutans. In words: Inhibition of Streptococcus mutans UA159 biofilm formation after 24 hr at 20 ug/ml by crystal violet staining analysis. The format is functional. As to conditions: UA159, 24 h.
The test system of experiment [21] is Streptococcus mutans. Put plainly: Inhibition of Streptococcus mutans UA159 biofilm formation at sub-MIC after 24 hr by crystal violet staining analysis. The format is functional.
Experiment [22] concerns Streptococcus mutans. Put plainly: Inhibition of Streptococcus mutans UA159 biofilm formation after 24 hr by crystal violet staining analysis. The format is functional, organism-based.

Molecules are shown by their SMILES. Converted amounts (≈) assume the structure as drawn. The source made the active and inactive calls. The rule behind the calls is not given here.

Usually MIC stands for the lowest concentration that inhibits growth of the organism. High values mean a need for much substance, low ones inhibition by little substance. One may read the inhibition as the drop in the measured response relative to a control, in per cent. In the experiment on Streptococcus mutans [1], `CCCCCCCCCCCCCCCCCCCCCCCCCCCC(=O)O` [N-OCTACOSANOIC ACID] returned an MIC of 80 µg/mL (≈ 188 µM). Also, the pH with Streptococcus mutans [2] is 6.48; with Streptococcus mutans [3], 6.02; in the experiment with Streptococcus mutans [4] it was 5.68; in the experiment with Streptococcus mutans [5], 5.14; in the experiment on Streptococcus mutans [6], 7.55; in the experiment with Streptococcus mutans [7] it was 6.98. The pH with Streptococcus mutans [8] is 6.66; in the experiment with Streptococcus mutans [9] it was 4.94; in the experiment with Streptococcus mutans [10], 4.65. Besides, the biofilm thickness with Streptococcus mutans [11] was found to be 12.7 µm. For the same compound, the inhibition entry in the experiment with Streptococcus mutans [12], in the experiment on Streptococcus mutans [16] and with Streptococcus mutans [19] was “Active” throughout. In addition, the values for the inhibition (in experiment [13]; in the experiment with Streptococcus mutans [22]) were 50% and “Dose-dependent effect”, respectively. Moreover, the inhibition at 20 µg/mL was 20.1% in the experiment on Streptococcus mutans [14] and 50% in the experiment on Streptococcus mutans [20]. This compound also gave an inhibition at 5 µg/mL in the experiment with Streptococcus mutans [15] of 48.4%. The same compound had an inhibition at 10 µg/mL in the experiment with Streptococcus mutans [17] of 50%. Further, the inhibition at 1.25 µg/mL in the experiment on Streptococcus mutans [18] was 61.3%. Also, the “inhibition (INH)” value with Streptococcus mutans [21] amounted to 60%.
